{
  "source": "patent US20230372263A1",
  "about": "“METHODS AND COMPOSITIONS FOR TREATING AMYOTROPHIC LATERAL SCLEROSIS” (Amylyx Pharmaceuticals, Inc., priority 2022, published 2023)",
  "key": {"[1]": {"assay": "clinical", "format": "in vivo, human", "conditions": "human, in vivo", "protocol": "(§1) • Protocol AMX3500: sparse sampling in 87 subjects with ALS. Approximately 2 samples are collected for each subject, 1 or 4 hours post dose following 12 and 24 weeks of treatment. • Protocol A35-002: rich sampling in 14 healthy adults. Approximately 21 samples are collected over 24 hours for each subject on two occasions, once following a high fat meal and the other under fasting conditions.\nA total of 14 healthy subjects were enrolled in order to have no fewer than 12 subjects complete. A predefined mix of gender was selected.\nEach study period followed the same study design (FIG. 1). Subjects were screened for inclusion in the study up to 28 days before dosing. Subjects were admitted to the clinical unit during Study Day −2 for Period 1 and Day −1 for Period 2 and were dosed in the morning of Day 1. On the night prior to Period 1 the subjects in the fasted/fed or fed/fasted sequence were fasted for a minimum of 10 h prior to dosing.\nThe solution was stirred until the powder was mostly dissolved.\nAny departures from the intended regimen were recorded in the eCRFs. All dose administrations were performed in the study center under the supervision of appropriately trained staff.\nSubjects were provided with a light snack and were then fasted from all food and drink (except water) until the following morning, when they were provided with a high-fat breakfast. The breakfast was consumed over a maximum period of 25 min, and dosing occurred 30 min after the start of breakfast. Subjects were encouraged to eat their meal evenly over the 25 min period. For this trial the subject was deemed compliant if they consumed >80% of the high-fat standard breakfast.\nThe subjects in the 24-h baseline and in the fasted condition Period remained fasted up to 4 h post-dose and were offered a standardized meal to be taken between 4.00 and 5.00 h post-dose. Subjects in the fed condition were fasted overnight and received a high-fat standard breakfast 30 minutes pre-dose and then remained fasted for 4.00 to 5.00 h post-dose when they received a standardized meal.\nVenous blood samples were withdrawn via an indwelling cannula or by venipuncture according to the time schedule presented in Table 5 Table, Table 6, and Table 7.\nBlood samples of approximately 4 mL were collected into 4 mL BD Vacutainer Plastic K2EDTA Tubes with Lavender Hemogard Closure, and was gently inverted approximately 8 times. The tubes were then immediately stored on ice and processed within 60 min of collection by centrifugation at 1500 g for 10 min at 2 to 8° C. The resultant plasma was separated equally into 2 aliquots and transferred to 2 mL appropriately labelled primary and backup polypropylene cryovials.\nActual elapsed time from dosing was to be used for the final plasma PK parameter calculations after database lock."}, "[2]": {"assay": "clinical", "format": "in vivo, human", "conditions": "human, in vivo; for concentration at 1 h / concentration at 4 h: both sexes", "protocol": "• 1. […] Treatment is administered as one sachet daily for the initial 3 weeks and then increased if tolerated to one sachet twice daily. […] Sampling times are randomly assigned to occur at either 1 or 4 hours post-dose at the 12 week visit and the other time at the 24 week visit. • Treatment duration: 24 weeks • 2.\nas §1\nSubjects were advised to take the drug before a meal. […] Referred to as protocol 3500.\nA study was carried out to examine plasma concentration data in various subgroups for the protocol AMX3500 Phase 2 study. This example summarizes plasma concentrations of TUDCA and 2 metabolites, also related acids, UDCA, the de-conjugated TUDCA metabolite, and GUDCA, the glycine conjugate of UDCA.\nFor each of the 2 treatment arms (treatment and placebo), subjects were further divided into 2 sample sequence groups for schedule of pharmacokinetic measurements: • 1. 1 hour post-dose for the Week 12 visit and 4 hours post-dose for the Week 24 visit • 2. 4 hours post-dose for the Week 12 visit and 1 hour post-dose for the Week 24 visit\nTwenty-four distinct medication descriptions were identified as containing antibiotics. Dates of antibiotic use were compared to dates of visits and if the antibiotic use date range contained the visit date, then that visit was flagged for that subject's data for antibiotic use. […] These antibiotics could hypothetically be in a subject's body still if this event occurred. However, it was observed that only a small number of subjects took antibiotics near to visit dates but not overlapping visit dates. In other cases, subjects were taking antibiotics on the date of one visit but not the others. Some subjects are therefore in both categories of antibiotic use and nonuse, though no individual visits for a subject are counted in both categories at the same time.\nSubjects whose race were recorded as “Black” or “African American” were evaluated according to the standard Glomerular Filtration Rate (eGFR) rating for that race. The other standard eGFR rating used, sometimes referred to as a standard for people who are White, was applied to subjects of all other races. These rates were analyzed as continuous in mL/min/1.73 m2 units and as the following categories: • 1. Less than 90 mL/min/1.73 m^2 • 2. Equal to or greater than 90 mL/min/1.73 m^2\nAge was converted from a continuous variable to 2 categories: • 1. As old or older than 65 years old • 2. Younger than 65 years old\nAll boxplots boxes are bounded at the 25th and 75th percentile, with whiskers at 10th and 90th percentiles, outliers beyond that as points, the black line as median, and red line as mean."}, "[3]": {"assay": "Plasma protein binding in vitro", "format": "in vitro ADME", "conditions": "plasma, co-administered in vitro"}, "[4]": {"tested_on": "Plasma protein", "assay": "Plasma protein binding in vitro", "format": "in vitro ADME", "conditions": "co-administered in vitro"}, "[5]": {"tested_on": "human hepatocytes", "assay": "Metabolites in hepatocytes in vitro", "format": "in vitro ADME"}, "[6]": {"conditions": "Steady-state plasma concentration"}},
  "data": [
    {"smiles": "C[C@H](CCC(=O)NCCS(=O)(=O)O)[C@H]1CC[C@H]2[C@@H]3[C@@H](O)C[C@@H]4C[C@H](O)CC[C@]4(C)[C@H]3CC[C@]12C", "note": "[TURSO, taurursodiol]", "values": [
      {"measurement": "AUC(0-inf)", "setting": "[1]; both sexes, AUC(0-inf)", "result": 3.91, "unit": "µg·h/mL"},
      {"measurement": "AUC(0-t)", "setting": "[1]; both sexes, AUC(0-last)", "result": 4.36, "unit": "µg·h/mL"},
      {"measurement": "Cmax", "setting": "[1]; both sexes, Cmax", "result": 0.741, "unit": "µg/mL"},
      {"measurement": "half-life", "setting": "[1]; both sexes, T1/2", "result": 4.34, "unit": "h"},
      {"measurement": "Tmax", "setting": "[1]; both sexes, Tmax", "result": 4.5, "unit": "h"},
      {"measurement": "Tmax", "setting": "[1]; both sexes, Tmax Median", "result": 4.5, "unit": "h"},
      {"measurement": "Vd/F", "setting": "[1]; both sexes, Vz/F", "result": 1600, "unit": "L"},
      {"measurement": "half-life", "setting": "[1]; both sexes, elimination half-lives (range)", "result": "2.51 to 8.71", "unit": "h"},
      {"measurement": "Cmax", "setting": "[1]; both sexes, mean Cmax", "result": 0.871, "unit": "µg/mL"},
      {"measurement": "Cmax", "setting": "[1]; both sexes, po, Cmax", "result": 0.741, "unit": "µg/mL"},
      {"measurement": "Tmax", "setting": "[1]; both sexes, po, Tmax, Median", "result": 4.5, "unit": "h"},
      {"measurement": "AUG(0-last)", "setting": "[1]; both", "result": "4360 (79.4) ng.h/ml"},
      {"measurement": "Tmax", "setting": "[1]; both", "result": 10.00, "unit": "h"},
      {"measurement": "increase in exposure (AUC) with high-fat, high-calorie meal", "setting": "[1]; both", "result": 46, "unit": "%"},
      {"measurement": "time of maximum plasma concentrations (range)", "setting": "[1]; both", "result": "1.50 to 10.00", "unit": "h"},
      {"measurement": "AUC(0-last), Adj Geo Mean", "setting": "[1]; both, po", "result": 4.46, "unit": "µg·h/mL"},
      {"measurement": "Cmax, Adj Geo Mean", "setting": "[1]; both, po", "result": 0.755, "unit": "µg/mL"},
      {"measurement": "median time to Cmax", "setting": "[1]", "result": 4.5, "unit": "h"},
      {"measurement": "concentration at 1 h", "setting": "[2]; Plasma Concentration, Mean", "result": 0.503, "unit": "µg/mL"},
      {"measurement": "concentration at 4 h", "setting": "[2]; Plasma Concentration, Mean", "result": 0.637, "unit": "µg/mL"},
      {"measurement": "concentration at 1 h", "setting": "[2]; Plasma Concentration, Median", "result": 0.248, "unit": "µg/mL"},
      {"measurement": "concentration at 4 h", "setting": "[2]; Plasma Concentration, Median", "result": 0.446, "unit": "µg/mL"},
      {"measurement": "concentration at 1 h", "setting": "[2]; [6]", "result": 0.448, "unit": "µg/mL"},
      {"measurement": "concentration at 4 h", "setting": "[2]; [6]", "result": 0.566, "unit": "µg/mL"},
      {"measurement": "Plasma Concentration, Median", "setting": "[2]; both", "result": 0.02, "unit": "µg/mL"},
      {"measurement": "Plasma Concentration, Min", "setting": "[2]; both", "result": 0.02, "unit": "µg/mL"},
      {"measurement": "steady state reached by", "setting": "[2]; both", "result": "≤ 12", "unit": "Week"},
      {"measurement": "Plasma Concentration, Min", "setting": "[2]; both, 1 h", "result": 0.02, "unit": "µg/mL"},
      {"measurement": "Plasma Concentration, Min", "setting": "[2]; both, 4 h", "result": 0.02, "unit": "µg/mL"},
      {"measurement": "accumulation in plasma after once- or twice-daily dosing", "setting": "[2]", "result": "little accumulation"},
      {"measurement": "effect of age on steady-state plasma concentration", "setting": "[2]", "result": "no difference"},
      {"measurement": "effect of mild renal insufficiency on steady-state plasma concentration", "setting": "[2]", "result": "no discernible difference"},
      {"measurement": "steady-state plasma concentrations versus endogenous levels", "setting": "[2]", "result": "at least an order of magnitude higher than endogenous levels"},
      {"measurement": "fraction unbound", "setting": "[3]", "result": 0.02},
      {"measurement": "Plasma protein binding", "setting": "[4]", "result": "~99", "unit": "%"},
      {"measurement": "metabolites detected in human hepatocytes versus rat and minipig hepatocytes", "setting": "[5]", "result": "also detected in rat and minipig hepatocytes"}
    ]}
  ]
}
